Results reported in article PMC3058569 (Chemical biology & drug design, 2010).
Values after ≈ are worked out from the molar mass of the structure shown. Values joined by “and” are separate entries in the source; they are usually repeats but may differ in a detail not shown here. Equal entries are not always repeated.

Assays:
[1] = test system: Mycobacterium intracellulare; assay: Susceptibility by modified Alamar Blue procedure; type: cell-based
[2] = test system: BSL-1 and 2 model organisms (fungi, bacteria, P. falciparum, L. donovani); assay: Overall in vitro antimicrobial and antiprotozoal screen; type: cell-based; conditions: for Antimicrobial or antiprotozoal activity (overall): all test organisms; for Activity against all other test organisms: fungi and bacteria other than S. aureus and MRS
[3] = test system: P. falciparum chloroquine resistant (W2) clone; assay: microbe, parasite or virus in culture; type: cell-based, Plasmodium falciparum; conditions: for IC50: Plasmodium falciparum, W2, read-out: Antimalarial P. falciparum W2 Clone IC50
[4] = test system: P. falciparum chloroquine sensitive (D6) clone; assay: In vitro antimalarial activity, plasmodial LDH activity; type: cell-based, Plasmodium falciparum; conditions: for IC50: Plasmodium falciparum, D6, read-out: Antimalarial P. falciparum D6 Clone IC50
[5] = test system: L. donovani promastigotes; assay: Antileishmanial activity, Alamar Blue assay; type: cell-based, Leishmania donovani; conditions: for Antileishmanial L. donovani IC50 / Antileishmanial L. donovani IC90: promastigotes; for Antileishmanial L. donovani IC90: 90% inhibition of leishmanial growth; for IC50 / IC90: Leishmania donovani; for IC50: read-out: Antileishmanial L. donovani IC50; for IC90: read-out: Antileishmanial L. donovani IC90
[6] = test system: Staphylococcus aureus; assay: Antibacterial susceptibility testing, modified CLSI method; type: cell-based; conditions: for IC50 Antibacterial S. aureus: 50% inhibition of bacterial growth; for IC50 against S. aureus and methicillin resistant S. aureus: range over both compounds and both strains (abstract)
[7] = test system: methicillin resistant S. aureus (MRS); assay: as above; type: cell-based, Staphylococcus aureus; conditions: for IC50 Antibacterial MRS: 50% inhibition of bacterial growth
[8] = test system: C. glabrata; assay: Antifungal susceptibility testing, modified CLSI method; type: cell-based, Candida glabrata; conditions: 50% inhibition of fungal growth
[9] = test system: A. fumigatus; assay: as above; type: cell-based; conditions: Aspergillus fumigatus
[10] = test system: Cryptococcus neoformans; assay: as above; type: cell-based
[11] = lowest concentration that allows no detectable growth

## O=C(O)c1cn(C2CC2)c2cc(N3CCNCC3)c(F)cc2c1=O [Ciprofloxacin]
[1]; Mycobacterium intracellulare, read-out: IC50 Antibacterial M. intracellulare
  IC50: 0.39 µg/mL (≈ 1.18 µM)
[1]; Mycobacterium intracellulare, read-out: MIC Antibacterial M. intracellulare
  MIC: 0.5 µg/mL (≈ 1.51 µM)

## ON=Cc1cc[n+](CCC[n+]2ccc(/C=N/O)cc2)cc1 [Compound 42, trimedoxime, reference compound]
[2]
  Antimicrobial or antiprotozoal activity (overall): completely devoid of any antimicrobial or antiprotozoal activities

## CCN(CC)CCCC(C)Nc1ccnc2cc(Cl)ccc12 (stereo not shown) [Chloroquine]
[3]
  IC50: 0.12 µg/mL (≈ 0.375 µM)
[4]
  IC50: 0.015 µg/mL (≈ 0.0469 µM)

## C[C@@H]1CC[C@H]2[C@@H](C)C(=O)O[C@@H]3O[C@@]4(C)CC[C@@H]1[C@]32OO4 [Artemisinin]
[3]
  IC50: 0.0065 µg/mL (≈ 0.023 µM)
[4]
  IC50: 0.01 µg/mL (≈ 0.0354 µM)

## O/N=C/c1cc[n+](COC[n+]2ccc(/C=N/O)cc2)cc1 [Compound 37, obidoxime, reference compound]
[2]
  Antimicrobial or antiprotozoal activity (overall): completely devoid of any antimicrobial or antiprotozoal activities

## ON=Cc1cccc[n+]1Cc1csc2ccccc12.[Cl-] [Compound 24, 1-(Benzothiophene-3-yl)-methyl-2-hydroxyiminomethylpyridinium chloride]
[2]
  Activity against all other test organisms: inactive
[5]
  Antileishmanial L. donovani IC50: 18 µg/mL
  Antileishmanial L. donovani IC90: 40 µg/mL
[1]; 50% inhibition of bacterial growth
  IC50 Antibacterial M. intracellulare: >20 µg/mL
[6]
  IC50 Antibacterial S. aureus: 12.2 µg/mL and 12.23 µg/mL
  IC50 against S. aureus and methicillin resistant S. aureus: 12.2 to 17.7 µg/mL
[6]; [11]
  MIC Antibacterial S. aureus: 20 µg/mL
[7]
  IC50 Antibacterial MRS: 17.7 µg/mL and 17.72 µg/mL
[7]; [11]
  MIC Antibacterial MRS: 20 µg/mL

## ON=Cc1cccc[n+]1Cc1ccc(Br)s1.[Cl-] [Compound 21]
[2]
  Activity against all other test organisms: inactive
[5]
  Antileishmanial L. donovani IC50: 19 µg/mL
  Antileishmanial L. donovani IC90: 40 µg/mL
[8]
  IC50 Antifungal C. glabrata: >20 µg/mL
[6]
  IC50 Antibacterial S. aureus: 15.3 µg/mL and 15.27 µg/mL
  IC50 against S. aureus and methicillin resistant S. aureus: 12.2 to 17.7 µg/mL
[7]
  IC50 Antibacterial MRS: 14.2 µg/mL and 14.19 µg/mL

## N=C(N)c1ccc(OCCCCCOc2ccc(C(=N)N)cc2)cc1 [Pentamidine, reference compound]
[5]
  IC50: 1.2 µg/mL (≈ 3.52 µM)
  IC90: 5 µg/mL (≈ 14.7 µM)

## C[C@@H]1[C@H](O)[C@@H](C)/C=C/C=C/C=C/C=C/C=C/C=C/C=C/[C@H](O[C@@H]2O[C@H](C)[C@@H](O)[C@H](N)[C@@H]2O)C[C@@H]2O[C@](O)(C[C@@H](O)C[C@@H](O)[C@H](O)CC[C@@H](O)C[C@@H](O)CC(=O)O[C@H]1C)C[C@H](O)[C@H]2C(=O)O [Amphotericin B]
[5]
  IC50: 0.2 µg/mL (≈ 0.216 µM)
  IC90: 0.4 µg/mL (≈ 0.433 µM)
[9]; read-out: IC50 Antifungal A. fumigatus
  IC50: 0.98 µg/mL (≈ 1.06 µM)
[9]; read-out: MIC Antifungal A. fumigatus
  MIC: 2.5 µg/mL (≈ 2.71 µM)
[10]; 50% inhibition of fungal growth
  IC50 Antifungal C. neoformans: 1.28 µg/mL (≈ 1.39 µM)
[10]; Cryptococcus neoformans, read-out: MIC Antifungal C. neoformans
  MIC: 2.5 µg/mL (≈ 2.71 µM)

## NC(=O)c1cc[n+](CCCBr)cc1.[Br-] [Compound 17]
[3]; chloroquine resistant clone
  Antimalarial P. falciparum W2 Clone IC50: 4.0 µg/mL
[4]; chloroquine sensitive clone
  Antimalarial P. falciparum D6 Clone IC50: 3.7 µg/mL
